Experimental data: patent US7067549B2, “Pyrrolidone carboxamides” (Actelion Pharmaceuticals AG, priority 2001, dated 2006)

The compounds below were run against T1, mouse NPY-Y5 receptors (mNPY-Y5) (Mus musculus, UniProt O70342) (assay: Radioligand competition binding (125I-PYY) on membranes of HEK293 cells expressing recombinant mouse NPY-Y5 receptor). Conditions: displacement of 100 pM 125I-labeled PYY, 1 h at 22° C., read-out: NPY5 IC50.
T1 construct: The full-length cDNA which contains the mouse NPY-Y5 (mNPY-Y5) receptor coding was amplified from mouse brain cDNA; expressed in transfected cells
T1 sequence (O70342 1-466): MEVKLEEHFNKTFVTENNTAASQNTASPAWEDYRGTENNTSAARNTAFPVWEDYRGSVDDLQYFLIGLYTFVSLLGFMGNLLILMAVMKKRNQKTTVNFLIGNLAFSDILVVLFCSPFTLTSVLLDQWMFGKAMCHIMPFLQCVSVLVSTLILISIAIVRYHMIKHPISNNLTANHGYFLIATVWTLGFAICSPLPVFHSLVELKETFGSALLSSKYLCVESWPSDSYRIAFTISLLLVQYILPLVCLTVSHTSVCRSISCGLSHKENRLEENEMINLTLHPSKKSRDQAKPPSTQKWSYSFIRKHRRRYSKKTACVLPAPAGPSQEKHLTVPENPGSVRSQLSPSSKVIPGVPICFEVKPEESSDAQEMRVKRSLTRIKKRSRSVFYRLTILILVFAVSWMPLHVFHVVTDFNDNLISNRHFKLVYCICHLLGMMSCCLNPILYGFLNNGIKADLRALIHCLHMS
Description: The full-length cDNA which contains the mouse NPY-Y5 (mNPY-Y5) receptor coding was amplified from mouse brain cDNA using specific primers, which were custom-made on the basis of published sequences, and employing Pfu DNA polymerase (Stratagene). The amplification product was subcloned into a mammalian expression vector pcDNA3 using EcoRI and XhoI restriction sites. Positive clones were sequenced; one clone, which contained the published sequence, was selected for preparing stable cell clones.
Human embryonic kidney 293 (HEK293) cells were transfected with 10 μg of mNPY5 DNA using Lipofectamine reagent (Gibco BRL) in accordance with the manufacturer's instructions. Two days after the transfection, the geneticin selection (1 mg/ml) was initiated and several stable clones were isolated. One of the clones was used for further pharmacological characterization.
Human embryonic kidney cells (HEK293) which express recombinant mouse NPY-Y5 receptors (mNPY-Y5) were disrupted by being frozen/thawed three times in hypotonic Tris buffer (5 mM, pH 7.4, 1 mM MgCl2), after which they were homogenized and centrifuged at 72 000 G for 15 minutes. The precipitate was washed twice with Tris buffer (pH 7.4) containing 25 mM MgCl2, 250 mM sucrose, 0.1 mM phenylmethylsulfonyl fluoride and 0.1 mM 1,10-phenanthroline, then resuspended in the same buffer and stored in aliquots at −80° C. The protein was determined by the Lowry method using bovine serum albumin (BSA) as the standard.
The competition binding analysis was carried out in 250 μl of 25 mM Hepes buffer (pH 7.4, 2.5 mM CaCl2, 1 mM MgCl2, 1% bovine serum albumin and 0.01% sodium azide) which 5 μg of protein, 100 pM ^125I-labeled peptide YY (PYY) and 10 μl of a DMSO solution containing increasing quantities of DMSO solution containing unlabeled test compound. After a one-hour incubation at 22° C., the bound ligand was separated from the unbound ligand by means of filtration through a glass fiber filter. Nonspecific binding was determined in the presence of 1 μM unlabeled PYY. Specific binding is defined as the difference between total binding and nonspecific binding. An IC50 value is defined as the concentration of the antagonist which displaces 50% of the ^125I-labeled […]. This concentration is determined by linear regression analysis following logit/log transformation of the binding values.

Row | SMILES | IC50 [nM]
1 | CCn1c2ccccc2c2cc(NC(=O)C3CC(=O)N(CCc4ccccn4)C3)ccc21 (racemic) [rac. N-(9-Ethyl-9H-carbazol-3-yl)-5-oxo-1-(2-pyridin-2-ylethyl)pyrrolidine-3-carboxamide] | 3
2 | CCn1c2ccccc2c2cc(NC(=O)C3CC(=O)N(CCc4ccccc4)C3)ccc21 (racemic) [rac. N-(9-Ethyl-9H-carbazol-3-yl)-5-oxo-1-phenethylpyrrolidine-3-carboxamide] | 12
3 | CCn1c2ccccc2c2cc(NC(=O)C3CC(=O)N(c4ccc(C)cc4)C3)ccc21 (racemic) [rac. N-(9-Ethyl-9H-carbazol-3-yl)-5-oxo-1-p-tolylpyrrolidine-3-carboxamide] | 30
4 | CCn1c2ccccc2c2cc(NC(=O)C3CC(=O)N(CCN4CCOCC4)C3)ccc21 (racemic) [rac. N-(9-Ethyl-9H-carbazol-3-yl)-1-(2-morpholin-4-ylethyl)-5-oxopyrrolidine-3-carboxamide] | 10
5 | CCn1c2ccccc2c2cc(NC(=O)C3CC(=O)N(Cc4ccc(Cl)cc4)C3)ccc21 (racemic) [rac. N-(9-Ethyl-9H-carbazol-3-yl)-1-(4-chlorobenzyl)-5-oxopyrrolidine-3-carboxamide] | 10
6 | Cc1ccc(N2CC(C(=O)Nc3ccc(Nc4nc(C)cc(C)n4)cc3)CC2=O)cc1 (racemic) [rac. N-[4-(4,6-Dimethylpyrimidin-2-ylamino)phenyl]-5-oxo-1-p-tolylpyrrolidine-3-carboxamide] | 32
7 | CCn1c2ccccc2c2cc(NC(=O)C3CC(=O)N(C4Cc5ccccc5C4)C3)ccc21 (racemic) [rac. N-(9-Ethyl-9H-carbazol-3-yl)-1-indan-2-yl-5-oxopyrrolidine-3-carboxamide] | 32
8 | Cc1ccc(C)c(N2CC(C(=O)Nc3ccc(Nc4nc(C)cc(C)n4)cc3)CC2=O)c1 (racemic) [rac. N-[4-(4,6-Dimethylpyrimidin-2-ylamino)phenyl]-1-(2,5-dimethylphenyl)-5-oxopyrrolidine-3-carboxamide] | 20
9 | CCn1c2ccccc2c2cc(NC(=O)C3CC(=O)N(Cc4ccccc4)C3)ccc21 (racemic) [rac. N-(9-Ethyl-9H-carbazol-3-yl)-1-benzyl-5-oxopyrrolidine-3-carboxamide] | 32
10 | CCn1c2ccccc2c2cc(NC(=O)C3CC(=O)N(c4ccccc4C(C)C)C3)ccc21 (racemic) [rac. N-(9-Ethyl-9H-carbazol-3-yl)-1-(2-isopropylphenyl)-5-oxopyrrolidine-3-carboxamide] | 10
11 | CCN(CCO)c1ccc(NC(=O)C2CC(=O)N(c3cc(C)ccc3C)C2)cc1 (racemic) [rac. N-{4-[Ethyl-(2-hydroxyethyl)amino]phenyl}-1-(2,5-dimethylphenyl)-5-oxopyrrolidine-3-carboxamide] | 16
12 | CCn1c2ccccc2c2cc(NC(=O)C3CC(=O)N(CCc4cccs4)C3)ccc21 (racemic) [rac. N-(9-Ethyl-9H-carbazol-3-yl)-5-oxo-1-(2-thiophen-2-ylethyl)pyrrolidine-3-carboxamide] | 10
13 | CCn1c2ccccc2c2cc(NC(=O)C3CC(=O)N(Cc4cccs4)C3)ccc21 (racemic) [rac. N-(9-Ethyl-9H-carbazol-3-yl)-5-oxo-1-thiophen-2-ylmethylpyrrolidine-3-carboxamide] | 10
14 | CCn1c2ccccc2c2cc(NC(=O)C3CC(=O)N(C4CCCCCC4)C3)ccc21 (racemic) [rac. N-(9-Ethyl-9H-carbazol-3-yl)-1-cycloheptyl-5-oxopyrrolidine-3-carboxamide] | 15

Second part, the compound after the results:

Row | IC50 [nM] | SMILES
15 | 49 | CCN(c1ccccc1)c1ccc(NC(=O)C2CC(=O)N(C3Cc4ccccc4C3)C2)cc1 (racemic) [rac. N-[4-(Ethylphenylamino)phenyl]-1-indan-2-yl-5-oxopyrrolidine-3-carboxamide]
16 | 30 | CCN(c1ccccc1)c1ccc(NC(=O)C2CC(=O)N(c3cc(OC)ccc3C)C2)cc1 (racemic) [rac. N-[4-(Ethylphenylamino)phenyl]-1-(5-methoxy-2-methylphenyl)-5-oxopyrrolidine-3-carboxamide]
17 | 17 | CCN(c1ccccc1)c1ccc(NC(=O)C2CC(=O)N(c3cc(C)ccc3C)C2)cc1 (racemic) [rac. N-[4-(Ethylphenylamino)phenyl]-1-(2,5-dimethylphenyl)-5-oxopyrrolidine-3-carboxamide]
18 | 23 | CCN(c1ccccc1)c1ccc(NC(=O)C2CC(=O)N(c3ccccc3C(C)C)C2)cc1 (racemic) [rac. N-[4-(Ethylphenylamino)phenyl]-1-(2-isopropylphenyl)-5-oxopyrrolidine-3-carboxamide]
19 | 30 | Cc1ccc(C)c(N2CC(C(=O)Nc3ccc(Nc4ccccc4)cc3)CC2=O)c1 (racemic) [rac. N-(4-Phenylaminophenyl)-1-(2,5-dimethylphenyl)-5-oxopyrrolidine-3-carboxamide]
20 | 26 | Cc1ccc(C)c(N2CC(C(=O)Nc3ccc(N(C)c4ccccc4)cc3)CC2=O)c1 (racemic) [rac. N-[4-(Methylphenylamino)phenyl]-1-(2,5-dimethylphenyl)-5-oxopyrrolidine-3-carboxamide]
21 | 34 | CC(C)c1ccccc1N1CC(C(=O)Nc2ccc(N(c3ccccc3)C(C)C)cc2)CC1=O (racemic) [rac. N-[4-(Isopropylphenylamino)phenyl]-1-(2-isopropylphenyl)-5-oxopyrrolidine-3-carboxamide]
22 | 10 | CCn1c2ccccc2c2cc(NC(=O)C3CC(=O)N(c4cc(OC)ccc4C)C3)ccc21 (racemic) [rac. N-(9-Ethyl-9H-carbazol-3-yl)-1-(5-methoxy-2-methylphenyl)-5-oxopyrrolidine-3-carboxamide]
23 | 34 | Cc1ccc(C)c(N2CC(C(=O)Nc3ccc(-c4ccccc4)cc3)CC2=O)c1 (racemic) [rac. N-(Biphenyl-4-yl)-1-(2,5-dimethylphenyl)-5-oxopyrrolidine-3-carboxamide]
24 | 34 | COc1ccc(C)c(N2CC(C(=O)Nc3ccc(N(CC4CC4)c4ccccc4)cc3)CC2=O)c1 (racemic) [rac. N-[4-(Cyclopropylmethylphenylamino)phenyl]-1-(5-methoxy-2-methylphenyl)-5-oxopyrrolidine-3-carboxamide]
25 | 45 | Cc1ccc(C)c(N2CC(C(=O)Nc3ccc(N(CC4CC4)c4ccccc4)cc3)CC2=O)c1 (racemic) [rac. N-[4-(Cyclopropylmethylphenylamino)phenyl]-1-(2,5-dimethylphenyl)-5-oxopyrrolidine-3-carboxamide]
26 | 44 | CCN(c1ccc(NC(=O)C2CC(=O)N(c3cccc(OC)c3)C2)cc1)c1nc(C)cc(C)n1 (racemic) [rac. N-{4-[(4,6-Dimethylpyrimidin-2-yl)ethylamino]phenyl}-1-(3-methoxyphenyl)-5-oxopyrrolidine-3-carboxamide]
27 | 20 | CC(C)c1ccccc1N1CC(C(=O)Nc2ccc(N(C)c3ccccc3)cc2)CC1=O (racemic) [rac. N-[4-(Methylphenylamino)phenyl]-1-(2-isopropylphenyl)-5-oxopyrrolidine-3-carboxamide]
28 | 41 | COc1ccc(C)c(N2CC(C(=O)Nc3ccc(N(C)c4nc(C)cc(C)n4)cc3)CC2=O)c1 (racemic) [rac. N-{4-[(4,6-Dimethylpyrimidin-2-yl)methylamino]phenyl}-1-(5-methoxy-2-methylphenyl)-5-oxopyrrolidine-3-carboxamide]
